{"source": "patent USRE44971E1", "about": "“Method for selection of transformed cells” (priority 2006, dated 2014)", "key": {"[1]": {"test_system": "soybean explants inoculated with Agrobacterium harboring pMON73691 (DMO and GFP genes)", "experiment": "Selection of pMON73691-inoculated soybean explants with 2,4-D or dicamba in liquid medium, GFP+ buds", "type": "cell-based", "conditions": "selective agent 0.01 mg/L; 375 explants inoculated; pMON73691", "experimental": "Freshly isolated soybean explants (mature embryo axes without cotyledons) were inoculated with Agrobacterium strain ABI harboring pMON73691 (containing DMO and GFP genes). After 3-d co-culture with Agrobacterium at 23° C. and a photoperiod of 16-h light and 8-h dark, the explants were cultured in liquid delay medium which contained modified woody plant medium supplemented with 5 mg/l BAP, 200 mg/l carbenicillin, 200 mg/l cefotaxime and 100 mg/l ticarcillin. The explants were in the delay medium for 4 days. They were then transferred to liquid selection medium in PLANTCONs. The selection medium was the same as the delay medium except of addition of various levels of 2,4-D (0.01, 0.1, 1.0 or 2.0 mg/L) or 0.01 mg/L dicamba as shown in Table 9 below. Each PLANTCON contained 60 ml of the selection medium and one piece of foam sponge with 5 slits. Twenty-five explants were evenly inserted into the slits. The cultures were maintained at 28° C. and a photoperiod of 16-h light and 8-h dark, and were examined periodically under a […] equipped for detecting GFP expressing tissues."}, "[2]": {"test_system": "Wild type Arabidopsis var. Columbia", "conditions": "1.0 mg/L in the culture medium; FIG. 8", "experimental": "The susceptibility of Arabidopsis to different levels of dicamba was first tested. Wild type Arabidopsis var. Columbia seeds were plated on plant tissue culture medium containing various levels of dicamba. […] Arabidopsis plants were then transformed with the constructs containing DMO polynucleotides using the floral dip method (Clough and Bent, 1998). R1 seeds were plated on the culture medium containing up to 4 mg/L of dicamba."}, "[3]": {"test_system": "soybean cells transformed with pMON73691", "experimental": "Mature seeds of soybean [Glycine max (L.) Merrill] cv. A3525 were imbibed, sterilized, and germinated at room temperature as set forth below. Other examples of soybean genotypes that can readily be used include, but are not limited to, Jack, Williams, Bert, Thorne, Granite, Lambert, Chapman, and Kunitz. Briefly, dry seeds (about 770 g) were soaked for 3 min in 2 L of 200 ppm sodium hypochlorite solution made from commercially available Clorox. The solution was drained and the seeds were set side for about 2 h. About 2 L of bean sterilization/germination medium was then added to the seeds. After about 9-10 h, seeds were ready for hand excision of explants. The bean germination medium contained the following in mg/L—NH4NO3: 240, KNO3: 505, CaCl2.2H2O: 176, MgSO4.7H2O: 493, KH2PO4: 27, H3BO3: 1.86, Na2MoO4.2H2O: 0.216, MnSO4.H2O: 5.07, ZnSO4. 7H2O: 2.58, FeSO4.7H2O: 2.502, KI: 0.249, Na2EDTA. 2H2O: 3.348, CuSO4.5H2O: 0.0008, CoCl2.6H2O: 0.0008, B1: 1.34, B3: 0.5, B6: 0.82, Bravo (75% WP; Diamond Shamrock Company, Cleveland, Ohio): 30, Captan (50% WP; Micro Flo Company, Lakeland, Fla.): 30, Cefotaxime: 125, and Sucrose: 25000, pH 5.8).\nThe binary vectors described above were mobilized into disarmed Agrobacterium tumefaciens strain C58 (ABI). Agrobacterium inoculum for infection was prepared as follows: 250 ml of LB medium (Luria-Bertani; Difco, Detroit, Mich.) containing 50 mg/l kanamycin (Sigma, St. Louis, Mo.) and 75 mg/l spectinomycin (Sigma, St. Louis, Mo.) was inoculated with 0.5 ml of Agrobacterium stock in glycerol (Acros Organics, Geel, Belgium) and was shaken at 200 rpm at 28° C. for approximately 20-22 h until the OD660 reached 0.8 to 1.0. The Agrobacterium broth was then centrifuged for 25 min at 3500 rpm (about 3565 g) at 2-4° C. After removing the supernatant, the Agrobacterium pellet was re-suspended in inoculation medium containing ⅖× of the macro nutrients, 1/10× of the micro nutrients and vitamins of Gamborg's B5 medium, supplemented with 3.9 g/l MES (Sigma, St. Louis, Mo.), and 30 g/l glucose (PhytoTechnology Laboratories, Shawnee Mission, Kans.), pH 5.4. Lipoic acid (Sigma, St. Louis, Mo.) was added to the Agrobacterium suspension to a final concentration of 0.25 mM after the density of the Agrobacterium cell suspension was adjusted to an OD660 of 0.30 to 0.35.\nAgrobacterium-infection and co-cultivation of the explants were conducted as follows: about 100 excised explants were dispensed into the lid of a sterile plastic culture vessel PLANTCON (MP Biomedicals, LLC, Irvine, Calif.). Five ml of Agrobacterium inoculum was added to the explants in each PLANTCON lid. The explants were then sonicated for 20 sec in a sonicator (Ultrasonic Multi Cleaner, Model W-113, Honda, Japan). One piece of Whatmann #1 filter paper (Whatman Inc., Clifton, N.J.) cut to the size of the PLANTCON bottom was placed in the bottom part of the PLANTCON. The explants were transferred from the lid onto the filter paper with the Agrobacterium inoculum. The PLANTCON s were then incubated in a Percival incubator at 16 h light (at about 85-90 μE) and 8 h dark photoperiod and at 23° C. for 2 to 4 d for co-cultivation.\nAfter a co-cultivation period of 2-4 days, explants were first cultured on a medium without dicamba (delay medium) for 3-5 d before being transferred to the selection medium with dicamba. Until transfer from delay medium to selection medium, the explants were kept in the same PLANTCON used for co-cultivation, but 10 or 12 ml of the delay medium was added to each PLANTCON. Alternatively, the explants were transferred to new PLANTCONs, each containing one piece of autoclaved felt (Jo-Ann Fabrics & Crafts, Madison, Wis.)) and 30 ml of the delay medium."}}}
{"smiles": "COc1c(Cl)ccc(Cl)c1C(=O)O", "note": "[dicamba, 3,6-dichloro-o-anisic acid]", "values": [{"measurement": "# Explants w/GFP + buds/young shoots at 48DAI", "setting": "[1]", "value": 28}, {"measurement": "susceptibility of wild type Arabidopsis", "setting": "[2]", "value": "quite susceptible"}, {"measurement": "dicamba-tolerant shoots harvested", "setting": "[3]; 0.01 mg/l in selection medium, from 800 explants, pMON73691", "value": 30}, {"measurement": "tolerant shoots harvested", "setting": "[3]; 0.02 mg/l in selection medium, pMON73691", "value": "few tolerant shoots were harvested"}, {"measurement": "tolerant shoots obtained", "setting": "[3]; 0.05 or 0.1 mg/l in selection medium, pMON73691", "value": "no tolerant shoots were obtained"}, {"measurement": "tolerant shoots that formed roots on rooting medium and were transferred to soil", "setting": "[3]; of 30 shoots selected on 0.01 mg/l", "value": "Twelve"}, {"measurement": "plants positive for DMO-encoding polynucleotides", "setting": "[3]; of ten tested, selected on 0.01 mg/l", "value": "seven"}, {"measurement": "concentration most efficacious for selecting dicamba-tolerant shoots", "setting": "[3]; soybean explants, pMON73691", "value": "≤ 0.01", "unit": "mg/L"}]}
